Article PMC2867246 (Biochemistry, 2010)

Experiments:
[1] = tested on: Swiss Webster mice; conditions: mouse, in vivo
[2] = tested on: N-type calcium channels (CaV2.2); format: cell-based; conditions: pH 7.4
[3] = tested on: CaV2.2; conditions: cited from earlier work

## ω-conotoxin GVIA
[1]
  behavior after injection: shaking syndrome
  behavior at higher concentrations: passive behavior with a backwards leg-extension
  duration of shaking behavior: lasted for more than a day
[2]
  percentage block of N-current: 98.5 ± 1.0 percentage
[3]
  affinity for CaV2.2, in words: high affinity
